Assay results as given in patent US20210323949A1, “COMPOUNDS AND METHODS FOR INHIBITION OF MULTIPLE MYELOMA” (FLORIDA ATLANTIC UNIVERSITY BOARD OF TRUSTEES, priority 2018, published 2021).

What was measured:
[1] = system: multiple myeloma cell lines; assay: Viability/proliferation of multiple myeloma cell lines; assay type: cell-based; details: over 48 h
[2] = system: 5TGM1 luciferase expressing multiple myeloma cells; assay: 5TGM1 multiple myeloma mouse model; assay type: in vivo, Mice (C57BL/6 KalwRij)
Protocol: FIG. 5A is a set of images and FIG. 5B and FIG. 5C are graphs showing the efficacy of RF-036 (MMP-13i) for the treatment of multiple myeloma. FIG. 5A, 5B: Mice (C57BL/6 KalwRij) were inoculated with 5TGM1 luciferase expressing multiple myeloma cells (1×10^6) and after 10 days randomized into vehicle (n=7) or MMP-13i (n=6) groups. Mice were treated daily with RF-036 at 2 mg/kg via intraperitoneal injection. Bioluminescence (FIG. 5A) was quantitated every 3-4 days (FIG. 5B). […] Asterisks denote statistical significance.
FIG. 7 is a Kaplan-Meier curve of overall survival time of 5TGM1 multiple myeloma bearing mice treated with RF-036 (MMP-13i) (n=6; 2 mg/kg daily) or vehicle control (n=7). The median survival time for the RF-036 group was 46 days compared to 41 for the vehicle control group.
The overall survival time of 5TGM1 multiple myeloma bearing mice treated with RF-036 (MMP-13i) (n=6; 2 mg/kg daily) was compared to vehicle control (n=7) (FIG. 7). The median survival time for the RF-036 group was 46 days compared to 41 for the vehicle control group.

[3] = system: MSCs and monocytic cells (RAW 267); assay: Proliferation of stromal cells of the bone microenvironment
[4] = system: bone marrow-derived macrophages (BMMs); details: bone marrow co-cultures/BMMs with M-CSF and RANKL, counted after 5 days
mature osteoclasts = assay: Inhibitor added to mature osteoclasts, TRAP-positive osteoclasts counted; details: TRAP positive osteoclasts counted after 5 days

CNC(=O)[C@@H](NC(=O)c1ccc(-c2ccc(CSc3nc4c(c(=O)[nH]3)CCC4)c(F)c2)o1)C(C)C [RF-036]
impact on viability of multiple myeloma cell lines [1]: up to 50% | IgG2b in serum (readout for tumor burden) ([2]; 2 mg/kg daily i.p., day 28, vs vehicle): significant differences between the vehicle and RF-036 groups | growth of multiple myeloma in vivo (bioluminescence) ([2]; 2 mg/kg daily, intraperitoneal injection): significantly reduces the growth of multiple myeloma | median survival time ([2]; 5TGM1 bearing mice, 2 mg/kg daily, n=6): 46 days | overall survival ([2]; multiple myeloma bearing mice, 2 mg/kg daily): increases overall survival | effects on stromal cells (MSCs and monocytes) [3]: minimal effects | osteoclast formation (number of TRAP-positive osteoclasts per well) [4]: significantly mitigated osteoclast formation | cell viability of mature osteoclasts (mature osteoclasts): no effect on cell viability
